Laboratory results reported in US12492173B2, “Herbicidal substituted N-tetrazolyl aryl carboxamides” (Bayer Aktiengesellschaft, priority 2019, dated 2025).

What was measured:
Assay type in all cases: in vivo
Echinochloa crus-galli [1] = assay: Pre-emergence herbicidal action, ECHCG; settings: dosage 320 g/ha, scored visually after 3 weeks vs untreated controls (100% = plants have died)
Procedure, shortened: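 Greenhouse pre-emergence test: formulated compound (WP or EC) applied in water to the soil covering sown seeds, 600–800 l/ha, 0.2% wetting agent. Scored visually in percent at 3 weeks versus untreated plants.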

Lolium multiflorum = assay: Pre-emergence herbicidal action, LOLMU; settings: dosage 320 g/ha, scored visually after 3 weeks vs untreated controls (100% = plants have died)
Excerpt: (§1) 1. Pre-Emergence Herbicidal Action Against Harmful Plants Seeds of monocotyledonous and dicotyledonous weed plants and crop plants are laid out in sandy loam soil in wood-fiber pots and covered with soil. The compounds of the invention, formulated in the form of wettable powders (WP) or as emulsion concentrates (EC), are then applied to the surface of the covering soil in the form of an aqueous suspension or emulsion at a water application rate equating to 600 to 800 l/ha, with addition of 0.2% wetting agent. After the treatment, the pots are placed in a greenhouse and kept under good growth conditions for the trial plants. The damage to the test plants is scored visually after a test period of 3 weeks by comparison with untreated controls (herbicidal activity in percent (%): 100% activity=the plants have died, 0% activity=like control plants). […] The tables below illustrate, in an exemplary manner, the […] herbicidal action of the compounds according to the invention, the herbicidal activity being stated in percent. [table] In the experiments that follow, herbicidal action of numerous inventive compounds and the known compounds that are structurally closest from D1 (WO 2012/028579 A1) and D2 (WO 2018/202535 A1) were compared under the above-specified conditions by the pre-emergence and post-emergence method. The example numbers given in the tables relate to the compounds disclosed in the respective documents. In addition to the compounds disclosed in D1 and D2, the following compounds V-1 to V-14 that are encompassed by D1 or D2 but are not compounds specified therein were used in the comparative experiments: • V-1: 2-(methylsulfanyl)-3-(methylsulfinyl)-N-(1-methyl-1H-tetrazol-5-yl)-4-(trifluoromethyl)benzamide • V-2: 2-(methylsulfanyl)-3-(methylsulfonyl)-N-(1-methyl-1H-tetrazol-5-yl)-4-(trifluoromethyl)benzamide • V-3: 2,3-bis(ethylsulfanyl)-N-(1-methyl-1H-tetrazol-5-yl)-4-(trifluoromethyl)benzamide • V-4: 2-chloro-3-(ethylsulfanyl)-N-(1-methyl-1H-tetrazol-5-yl)-4-(trifluoromethyl)benzamide • V-5: 2-chloro-4-iodo-3-(methylsulfanyl)-N-(1-methyl-1H-tetrazol-5-yl)benzamide • V-6: 2-chloro-4-iodo-3-(methylsulfinyl)-N-(1-methyl-1H-tetrazol-5-yl)benzamide • V-7: 2-chloro-4-iodo-3-(methylsulfonyl)-N-(1-methyl-1H-tetrazol-5-yl)benzamide • V-8: 2-bromo-3-(methylsulfanyl)-N-(1-methyl-1H-tetrazol-5-yl)-4-(trifluoromethyl)benzamide • V-9: 2-bromo-3-(methylsulfinyl)-N-(1-methyl-1H-tetrazol-5-yl)-4-(trifluoromethyl)benzamide • V-10: 2-bromo-3-(methylsulfonyl)-N-(1-methyl-1H-tetrazol-5-yl)-4-(trifluoromethyl)benzamide • V-11: 2-bromo-3-(ethylsulfanyl)-N-(1-methyl-1H-tetrazol-5-yl)-4-(trifluoromethyl)benzamide • V-12: 2-bromo-3-(ethylsulfinyl)-N-(1-methyl-1H-tetrazol-5-yl)-4-(trifluoromethyl)benzamide • V-13: 2-bromo-3-(ethylsulfonyl)-N-(1-methyl-1-1H-tetrazol-5-yl)-4-(trifluoromethyl)benzamide • V-14: 2-cyclopropyl-3-(ethylsulfanyl)-N-(1-methyl-1H-tetrazol-5-yl)-4-(trifluoromethyl)benzamide Herbicidal Pre-Emergence Action: […]

Echinochloa crus-galli [2] = assay: Post-emergence herbicidal action, ECHCG; parameters: key: % herbicidal action vs untreated; 100 = plants died, 0 = like control
Procedure, shortened: (§2)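 Percent herbicidal effect was rated visually about 3 weeks after treatment, relative to untreated plants (0% = like control, 100% = dead). Compounds, formulated as WP or EC, went on as aqueous spray (600–800 l/ha, 0.2% wetting agent) to one-leaf-stage plants 2–3 weeks post-sowing in sandy loam.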

Avena fatua = assay: Post-emergence herbicidal action, AVEFA; parameters: key: % herbicidal action vs untreated; 100 = plants died, 0 = like control
Procedure, shortened: as §2

Cyperus esculentus = assay: Post-emergence herbicidal action, CYPES; parameters: key: % herbicidal action vs untreated; 100 = plants died, 0 = like control
Procedure, shortened: as §2

Hordeum murinum = assay: Pre-emergence herbicidal action, HORMU; settings: dosage 320 g/ha, scored visually after 3 weeks vs untreated controls (100% = plants have died)
Excerpt: as §1

CCn1nnnc1NC(=O)c1ccc(C(F)(F)F)c(CS(C)(=O)=O)c1Cl [Example 2-298]
herbicidal activity ECHCG (Echinochloa crus-galli [1]): 100% | herbicidal activity LOLMU (Lolium multiflorum): 90% | herbicidal action ECHCG (Echinochloa crus-galli [2]; Dosage 80 g/ha): 90 | herbicidal action AVEFA (Avena fatua; Dosage 80 g/ha): 100

CCSCc1c(C(F)(F)F)ccc(C(=O)Nc2nnnn2CC)c1Cl [Example 2-299]
herbicidal activity ECHCG (Echinochloa crus-galli [1]): 100% | herbicidal activity LOLMU (Lolium multiflorum): 100% | herbicidal action ECHCG (Echinochloa crus-galli [2]; post-emergence, dosage 80 g/ha): 90% | herbicidal action AVEFA (Avena fatua; post-emergence, dosage 80 g/ha): 100% | herbicidal action CYPES (Cyperus esculentus; post-emergence, dosage 80 g/ha): 90%

CCn1nnnc1NC(=O)c1ccc(C(F)F)c(CSC)c1Cl [Example 2-320]
herbicidal activity ECHCG (Echinochloa crus-galli [1]): 100% | herbicidal activity LOLMU (Lolium multiflorum): 90% | herbicidal action ECHCG (Echinochloa crus-galli [2]; Dosage 80 g/ha): 100 | herbicidal action AVEFA (Avena fatua; Dosage 80 g/ha): 90 | herbicidal action CYPES (Cyperus esculentus; Dosage 80 g/ha): 80

CCn1nnnc1NC(=O)c1ccc(C(F)F)c(CS(C)(=O)=O)c1Cl [Example 2-322]
herbicidal activity ECHCG (Echinochloa crus-galli [1]): 100% | herbicidal activity LOLMU (Lolium multiflorum): 100% | herbicidal action ECHCG (Echinochloa crus-galli [2]; post-emergence, dosage 80 g/ha): 100% | herbicidal action AVEFA (Avena fatua; post-emergence, dosage 80 g/ha): 80%

CCSCc1c(C(F)F)ccc(C(=O)Nc2nnnn2CC)c1Cl [Example 2-323]
herbicidal activity ECHCG (Echinochloa crus-galli [1]): 100% | herbicidal activity LOLMU (Lolium multiflorum): 100% | herbicidal action ECHCG (Echinochloa crus-galli [2]; post-emergence, dosage 80 g/ha): 100% | herbicidal action AVEFA (Avena fatua; post-emergence, dosage 80 g/ha): 100% | herbicidal action CYPES (Cyperus esculentus; post-emergence, dosage 80 g/ha): 80%

CCn1nnnc1NC(=O)c1ccc(C(F)F)c(CS(=O)(=O)CC)c1Cl [Example 2-325]
herbicidal activity ECHCG (Echinochloa crus-galli [1]): 100% | herbicidal activity LOLMU (Lolium multiflorum): 100% | herbicidal action ECHCG (Echinochloa crus-galli [2]; Dosage 80 g/ha): 100 | herbicidal action AVEFA (Avena fatua; Dosage 80 g/ha): 90

CCn1nnnc1NC(=O)c1ccc(C(F)(F)F)c(C[S+]([O-])CC)c1Br (stereo not shown) [Example 2-384]
herbicidal activity ECHCG (Echinochloa crus-galli [1]): 100% | herbicidal activity LOLMU (Lolium multiflorum): 100% | herbicidal action ECHCG (Echinochloa crus-galli [2]; post-emergence, dosage 80 g/ha): 90% | herbicidal action AVEFA (Avena fatua; post-emergence, dosage 80 g/ha): 90%

CCn1nnnc1NC(=O)c1ccc(C(F)(F)F)c(CS(=O)(=O)CC)c1Br [Example 2-385]
herbicidal activity ECHCG (Echinochloa crus-galli [1]): 100% | herbicidal activity LOLMU (Lolium multiflorum): 100% | herbicidal action ECHCG (Echinochloa crus-galli [2]; post-emergence, dosage 80 g/ha): 90% | herbicidal action AVEFA (Avena fatua; post-emergence, dosage 80 g/ha): 90% | herbicidal action CYPES (Cyperus esculentus; post-emergence, dosage 80 g/ha): 90%

CCCn1nnnc1NC(=O)c1ccc(C(F)F)c(C[S+](C)[O-])c1SC (stereo not shown) [Example 3-171]
herbicidal activity HORMU (Hordeum murinum): 90% | herbicidal activity ECHCG (Echinochloa crus-galli [1]): 100% | herbicidal action ECHCG (Echinochloa crus-galli [2]; Dosage 80 g/ha): 90

CCCn1nnnc1NC(=O)c1ccc(C(F)F)c(CS(C)(=O)=O)c1SC [Example 3-172]
herbicidal activity HORMU (Hordeum murinum): 80% | herbicidal activity ECHCG (Echinochloa crus-galli [1]): 100% | herbicidal action ECHCG (Echinochloa crus-galli [2]; Dosage 80 g/ha): 90

CCCn1nnnc1NC(=O)c1ccc(C(F)(F)F)c(CS(C)(=O)=O)c1Cl [Example 3-298]
herbicidal activity ECHCG (Echinochloa crus-galli [1]): 100% | herbicidal activity LOLMU (Lolium multiflorum): 90% | herbicidal action ECHCG (Echinochloa crus-galli [2]; Dosage 80 g/ha): 90 | herbicidal action AVEFA (Avena fatua; Dosage 80 g/ha): 100

CCCn1nnnc1NC(=O)c1ccc(C(F)F)c(CS(C)(=O)=O)c1Cl [Example 3-322]
herbicidal activity ECHCG (Echinochloa crus-galli [1]): 100% | herbicidal activity LOLMU (Lolium multiflorum): 80% | herbicidal action ECHCG (Echinochloa crus-galli [2]; Dosage 80 g/ha): 100 | herbicidal action AVEFA (Avena fatua; Dosage 80 g/ha): 80

CCCn1nnnc1NC(=O)c1ccc(C(F)F)c(CSCC)c1Cl [Example 3-323]
herbicidal activity ECHCG (Echinochloa crus-galli [1]): 100% | herbicidal activity LOLMU (Lolium multiflorum): 100% | herbicidal action ECHCG (Echinochloa crus-galli [2]; Dosage 80 g/ha): 100 | herbicidal action AVEFA (Avena fatua; Dosage 80 g/ha): 90

CCCn1nnnc1NC(=O)c1ccc(C(F)(F)F)c(C[S+]([O-])CC)c1Br (stereo not shown) [Example 3-384]
herbicidal activity ECHCG (Echinochloa crus-galli [1]): 100% | herbicidal activity LOLMU (Lolium multiflorum): 90% | herbicidal action ECHCG (Echinochloa crus-galli [2]; Dosage 80 g/ha): 90 | herbicidal action AVEFA (Avena fatua; Dosage 80 g/ha): 90
